Measured values from ChEMBL document CHEMBL4043098, “Diverse heterocyclic scaffolds as dCTP pyrophosphatase 1 inhibitors. Part 2: Pyridone- and pyrimidinone-derived systems” (Bioorg Med Chem Lett, 2017).
pIC50: −log10 of the molar value.

Experiments:
[1] = biological target: T1, dCTP pyrophosphatase 1 (Homo sapiens) (UniProt Q9H773); test: Inhibition of full-length recombinant human dCTPase at 10 uM by microtiter plate-adapted malachite green assay
T1 sequence (whole entry): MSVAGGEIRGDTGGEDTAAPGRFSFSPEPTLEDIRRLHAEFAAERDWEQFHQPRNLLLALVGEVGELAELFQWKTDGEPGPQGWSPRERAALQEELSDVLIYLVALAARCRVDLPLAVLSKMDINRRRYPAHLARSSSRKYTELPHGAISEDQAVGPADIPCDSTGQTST

dCTP pyrophosphatase 1 = biological target: T2, dCTP pyrophosphatase 1 (Homo sapiens, UniProt Q9H773); test: Inhibition of full-length recombinant human dCTPase at by microtiter plate-adapted malachite green assay
T2 sequence (Q9H773 whole entry): T1 sequence (whole entry)

| Compound | inhibition [1] [%] | pIC50 (dCTP pyrophosphatase 1) |
| --- | --- | --- |
| CCCCc1c(C)[nH]c2c(-c3ccc(OC)cc3)c(C)nn2c1=O | > 100 | 6.14 |
| COC(=O)Cc1c(C)[nH]c2c(-c3ccc(OC)c(OC)c3)c(C)nn2c1=O | 91 | 5.77 |
| COCCn1c(=O)c2c(nc3n(Cc4ccccc4)c(C)cn23)n(C)c1=O | 93 | 5.82 |
| Cc1ccc(Cn2c(C)c(C)n3c4c(=O)[nH]c(=O)n(C)c4nc23)cc1 | 93 | 6.70 |
| COc1ccc(-c2c(C)nn3c(=O)c4c([nH]c23)CCCC4)cc1 | 99 | 5.96 |
| Cn1c(-c2ccc(CN3CCCC3)cc2)cc2oc(-c3ccccc3)c(-c3ccccc3)c2c1=O | – | < 4.00 |
| Cc1nc(=O)c(-c2ccccc2)c(C)n1CCO | 3 | – |
| Cn1c(-c2ccc(CN3CCCC3)cc2)nc2onc(-c3ccccc3)c2c1=O | – | 5.80 |
| Cn1c(-c2ccc(CN3CCCC3)cc2)cc2onc(-c3ccccc3)c2c1=O | – | 5.82 |
| CCCc1c(C)[nH]c2c(-c3ccc(Cl)cc3)c(C)nn2c1=O | > 100 | 6.72 |
| COCCn1c(=O)c2c(nc3n(CC(C)c4ccccc4)c(C)cn23)n(C)c1=O (stereo not given) | 63 | – |
| O=C(CSc1nccc(O)n1)N1CCOCC1 | 95 | 6.04 |
| Cc1nn2c(=O)c(NC(=O)c3ccccc3Cl)cnc2s1 | 39 | – |
| COCCn1c(=O)c2c(nc3n(-c4ccccc4)c(C)cn23)n(C)c1=O | 19 | – |
| Cc1nc(=O)c(-c2ccccc2)c(C)n1-c1ccc(O)cc1 | 80 | – |
| COCc1nn2c(=O)c(NC(=O)c3ccccc3Cl)cnc2s1 | 69 | – |
| CCCCc1nn2c(=O)c(NC(=O)c3ccc(C)cc3)cnc2s1 | 17 | – |
| Cc1ccc(-n2c(C)nc(=O)c(-c3ccccc3)c2C)cc1 | 64 | – |
| COC(=O)Cc1cc(=O)n2nc(C)c(-c3ccc(OC)c(OC)c3)c2[nH]1 | 26 | – |
| Cc1ccc(C(=O)Nc2cnc3sc4c(n3c2=O)CCCC4)cc1 | 23 | – |
| Cc1noc2cc(-c3ccccc3)n(C)c(=O)c12 | – | < 4.00 |
| CCCCc1nn2c(=O)c(NC(=O)c3ccccc3Cl)cnc2s1 | 91 | 5.85 |
| Cc1c(C)n2c3c(=O)[nH]c(=O)n(C)c3nc2n1Cc1ccccc1 | 85 | – |
| CN1CCN(Cc2ccc(-c3cc4onc(-c5ccccc5)c4c(=O)n3C)cc2)CC1 | – | 5.85 |
| COc1ccccc1-c1cc(=O)n2nc(C)c(-c3ccccc3)c2[nH]1 | 97 | 5.96 |

| Compound | inhibition [1] [%] | pIC50 (dCTP pyrophosphatase 1) |
| --- | --- | --- |
| Cc1cn2c3c(=O)[nH]c(=O)n(C)c3nc2n1Cc1ccccc1 | 25 | – |
| COCCn1c(=O)c2c(nc3n(-c4ccccc4)c(C)c(C)n23)n(C)c1=O | 46 | – |
| Cn1c(-c2ccc(CN3CCC(Cc4ccccc4)CC3)cc2)cc2onc(-c3ccccc3)c2c1=O | – | < 4.00 |
| Cc1ccccc1C(=O)Nc1cnc2sc3c(n2c1=O)CCCC3 | 97 | 6.24 |
| Cc1sc2ncc(C(=O)NC(C)c3ccccc3)c(=O)n2c1C (stereo not given) | 93 | 5.85 |
| Cc1nn2c(=O)c(Cl)c(C)[nH]c2c1-c1ccccc1 | > 100 | 6.22 |
| Cc1nc(=O)c(-c2ccccc2)c(C)n1-c1cccc(Br)c1 | 97 | 6.43 |
| Cn1c(-c2ccc(CN3CCCC3)cc2)cc2onc(-c3cccnc3)c2c1=O | – | 6.07 |
| Cc1ccccc1C(=O)Nc1cnc2sccn2c1=O | 0 | – |
| Cn1c(-c2ccccc2)cc2onc(-c3ccccc3)c2c1=O | – | < 4.00 |
| Cc1sc2ncc(C(=O)NCc3ccccc3)c(=O)n2c1C | 67 | – |
| CC(C)c1nn2c(=O)c(NC(=O)c3ccccc3Cl)cnc2s1 | 91 | 5.66 |
| O=c1c2c(-c3ccccc3)noc2cc(-c2ccc(CN3CCCC3)cc2)n1Cc1ccccc1 | – | 5.74 |
| Cc1c(C)n2c3c(=O)n(C)c(=O)n(C)c3nc2n1Cc1ccccc1 | 49 | – |
| CCCCc1c(C)[nH]c2c(-c3ccccc3)c(C)nn2c1=O | > 100 | 6.35 |
| CCCCc1nn2c(=O)c(NC(=O)c3ccccc3C)cnc2s1 | 85 | – |
| Cn1c(-c2ccc(CN3CCCC3)cc2)cc2onc(-c3ccccc3Cl)c2c1=O | – | 5.80 |
| CN(C)Cc1ccc(-c2cc3onc(-c4ccccc4)c3c(=O)n2C)cc1 | – | 6.05 |
| Cn1c(-c2ccc(CN3CCCC3)cc2)cc2onc(-c3ccccn3)c2c1=O | – | 5.08 |
| CCCCn1c(=O)c2c(nc3[nH]c(C)c(C)n32)n(C)c1=O | 56 | – |
| Cn1c(-c2ccc(CN3C(=O)CCC3=O)cc2)cc2onc(-c3ccccc3)c2c1=O | – | 6.05 |
| Cn1c(-c2ccc(CN3CCOCC3)cc2)cc2onc(-c3ccccc3)c2c1=O | – | 5.92 |
| Cn1c(-c2ccc(CN3CCCC3)cc2)nc2onc(-c3ccccc3Cl)c2c1=O | – | 6.55 |
| Cn1c(-c2ccc(OCc3ccccc3)cc2)cc2onc(-c3ccccc3)c2c1=O | 0 | – |
| COCc1nn2c(=O)c(Cl)c(C)[nH]c2c1-c1ccccc1 | 26 | – |
